Assay results: US9834514B2, “Antibiotic sensitivity-restoring and photosensitive agents” (New Mexico Tech Research Foundation, priority 2015, dated 2017)
Converted amounts (≈) assume the structure as drawn.

Tests used:
[1] = test system: HeLa cells; assay: Toxicity (IC50) on HeLa cells; assay type: cell-based, human; conditions: for IC50: Homo sapiens, cancerous cervical epithelium HeLa cells
Description: The toxicities of the compounds of the invention were determined for human cancerous cervical epithelium HeLa and normal lung fibroblast WI38 cells. The toxicities of EPIs INF-55 and INF-55Cl were quantified as controls. […] TABLE 2 compares the toxicity of compounds 7-11 on HeLa cells and normal WI38 cells.

[2] = test system: MRSA (ATCC No. BAA-44; ATCC No. BAA-1717); assay: Light-activated killing (photodynamic therapy), colony counts; assay type: cell-based, S. aureus; conditions: for Dark Toxicity: no light; for Light Toxicity: white light 2 minutes; for log reduction in the concentration of CFUs: MRSA, FIG. 7
Description: Bacterial media was inoculated with bacteria and incubated overnight. The bacterial cultures were diluted to 5×10^8 CFU/mL using a McFarland latex turbidity standard (0.5). Compound 1 was diluted with sterile DMSO, which was added to the cell suspension in a glass culture tube. The cells were then incubated for 30 minutes at 37° C. on a rotary shaking incubator at 150 rpm. 500 μL of the treated cell suspension was added to a well on a sterile ceramic drop plate. Non-coherent white light from a Lumacare™ LC-122 unit was used to irradiate the samples. The end of the light probe was placed 3 cm above the sample well, perpendicular to the surface of the sample, and light was applied for 2 minutes (15 seconds light, 15 seconds dark). 200 μL of the irradiated sample was transferred to a 96-well plastic microtiter plate, and five ten-fold dilutions were made in the media. 10 μL of each dilution was dripped onto an agar media plate and streaked down the plate by tilting the plate down. The agar plates were incubated at 37° C. overnight, and colony counts were performed to calculate the CFU/mL.
Dose-dependent effects of treating bacteria with compound 1 and irradiation with white light were assessed by treating 10^8 CFU/mL of cells with compound 1, followed by irradiation with white light for 2 minutes. Compound 1 was added at a specific concentration to 1 mL of a 10^8 CFU/mL suspension of the respective bacterial cells, and the cells were incubated at 37° C. for approximately 45 minutes on a rotary shaker at 150 rpm. 0.5 mL of the cell suspension was removed and placed into the wells of a sterile ceramic drop plate, and then the cells were irradiated with white light from a Lumacare™ LC 122A light source for 2 minutes at a distance of approximately 3 cm. The time and distance of the light application delivered about 85 J/cm^2 of 400-700 nm light to the sample. After being irradiated, ten-fold dilutions were made of each cell sample. The dilutions were drip-streaked onto a tryptic soy agar (TSA) plate and incubated at 37° C. for 18-24 hours. Enumeration of bacteria was determined from the dilution, which produced a drip-streak containing approximately 30-300 colonies. After counting the colonies, the CFU/mL was calculated by applying the respective dilution factor and a factor of 100 to account for the 10 μL of sample taken. Appropriate controls were prepared, including cells with no treatment, cells with only compound 1 added, and cells only treated with light.

[3] = test system: P. aeruginosa; assay: MIC against P. aeruginosa; assay type: cell-based; conditions: Pseudomonas aeruginosa, read-out: MIC
Text: Only compound 1 was able to decrease the CFU/mL when used in conjunction with white light to treat P. aeruginosa.

[4] = test system: MRSA (ATCC BAA-44); assay: Synergy with oxacillin and norfloxacin and other antibiotics (colony counts); assay type: cell-based, S. aureus; conditions: for Synergy with Norfloxacin / Synergy with Oxacillin: TABLE 6; for log reduction in the number of surviving cells (CFU/mL), co-treatment with norfloxacin / log reduction in the number of surviving cells (CFU/mL), co-treatment with oxacillin: compared to compound alone, FIGS. 34, 39, 41; for Orders of Magnitude with Norfloxacin / Orders of Magnitude with Oxacillin: increase in ability to kill MRSA versus drug or compound alone; for MICs greater than cells treated with compound alone, with norfloxacin / MICs greater than cells treated with compound alone, with oxacillin: FIGS. 35-38
Description: The synergy of compounds 1 and 7-11 with oxacillin and norfloxacin was tested against MRSA (ATCC BAA-44). An overnight culture of MRSA was first diluted to about 5×10^5 CFU/mL in TSB. Then, 1 mL of the diluted broth suspension was added to a borosilicate glass culture tube. An appropriate volume of a compound or an antibiotic drug stock was added to the broth suspension and mixed using a vortex mixer. Then an appropriate volume of an antibiotic was added to test synergy with compounds 7-11. The samples were subsequently mixed using a vortex mixer, and the samples were incubated for 18 hours at 37° C. on a rotary shaking incubator. After 18 hours, the test cultures were diluted ten-fold, 10 μL of each dilution was drip-streaked onto a TSA plate, and the samples were incubated for 18 hours at 37° C. Colony counts were then performed and the CFU/mL values were calculated.
TABLE 21 details the MIC values identified in the MRSA assay of compounds 1, 7, 8, 9, 10, 11, various antibiotics, and light.

[5] = test system: VRE; assay: MIC against VRE; assay type: cell-based, Enterococcus faecalis; conditions: Enterococcus, TABLE 23, read-out: VRE MIC
Description: In a 12×75 mm borosilicate glass culture tube, 1 mL of cell suspension was added. Then, compound 7 was added to the cells, and the samples were mixed using a vortex mixer. […] The samples were incubated overnight at 37° C. on a rotary shaking incubator at 100 rpm.

[6] = test system: VRE; assay: Resensitization to antibiotics (log reduction, TABLE 29); assay type: cell-based, Enterococcus faecalis
Description: In a 96-well microtiter plate, two-fold dilutions were made of each drug (starting with 100 μM) in 100 μL of a cell suspension in TSB. The resulting samples were incubated overnight at 37° C. on a rotary shaking incubator at 100 rpm. The samples were then visually inspected for turbidity. A 20% well volume of MTT reagent (5 mg/mL) was subsequently added, and the samples were incubated for about 20 minutes.

[7] = (1/40) MIC compound + (1/30) MIC Tetracycline
[8] = (1/40) MIC compound + (1/31) MIC Dicloxicillin
[9] = (1/40) MIC compound + (1/50) MIC Dicloxicillin
[10] = (1/40) MIC compound + (1/50) MIC Norfloxacin
[11] = (1/40) MIC compound + (1/50) MIC Tobramycin
[12] = (1/40) MIC compound + (¼) MIC Oxacillin
[13] = (1/40) MIC compound + (⅙) MIC Vancomycin
[14] = (⅓) MIC compound + (¼) MIC Norfloxacin
[15] = (⅓) MIC compound + (½) MIC Oxacillin
[16] = (⅛) MIC compound + (1/16) MIC Norfloxacin
[17] = (⅛) MIC compound + (⅛) MIC Oxacillin

Clc1ccc(/C=C/c2[nH]c3ccccc3c2/C=C/c2ccc(Cl)cc2)cc1 [Compound 1]
IC50 [1]: 68.9 ± 4.8 µM | Dark Toxicity ([2]; MRSA ATCC BAA-44, 0.1 μM): 2.85 × 10^8 ± 8.05 × 10^7 CFU/mL | Light Toxicity ([2]; MRSA ATCC BAA-44, 0.1 μM): 2.00 × 10^3 ± 4.00 × 10^2 CFU/mL | Dark Toxicity ([2]; MRSA ATCC BAA-44, 0.5 μM): 2.93 × 10^8 ± 2.14 × 10^7 CFU/mL | Light Toxicity ([2]; MRSA ATCC BAA-44, 0.5 μM): 3.33 × 10^1 ± 5.77 × 10^1 CFU/mL | Dark Toxicity ([2]; MRSA ATCC BAA-44, 1.0 μM): 1.05 × 10^8 ± 9.07 × 10^6 CFU/mL | Light Toxicity ([2]; MRSA ATCC BAA-44, 1.0 μM): None detected (<100 CFU/mL) | Dark Toxicity ([2]; MRSA ATCC BAA-44, 5.1 μM): 4.34 × 10^5 ± 5.04 × 10^5 CFU/mL | Light Toxicity ([2]; MRSA ATCC BAA-44, 5.1 μM): None detected (<100 CFU/mL) | Dark Toxicity ([2]; MRSA ATCC BAA-1717, 0.1 μM): 5.10 × 10^7 ± 5.29 × 10^6 CFU/mL | Light Toxicity ([2]; MRSA ATCC BAA-1717, 0.1 μM): 4.43 × 10^3 ± 1.33 × 10^3 CFU/mL | Dark Toxicity ([2]; MRSA ATCC BAA-1717, 0.5 μM): 4.03 × 10^6 ± 1.5 × 10^6 CFU/mL | Light Toxicity ([2]; MRSA ATCC BAA-1717, 0.5 μM): 4.0 × 10^2 ± 3.61 × 10^2 CFU/mL | Dark Toxicity ([2]; MRSA ATCC BAA-1717, 1.0 μM): 1.06 × 10^6 ± 8.39 × 10^4 CFU/mL | Light Toxicity ([2]; MRSA ATCC BAA-1717, 1.0 μM): None detected (<100 CFU/mL) | Dark Toxicity ([2]; MRSA ATCC BAA-1717, 5.1 μM): 7.53 × 10^5 ± 1.12 × 10^5 CFU/mL | Light Toxicity ([2]; MRSA ATCC BAA-1717, 5.1 μM): None detected (<100 CFU/mL) | log reduction in the concentration of CFUs ([2]; 1 μM): 1 log | log reduction in the concentration of CFUs ([2]; 5 μM): 3 log | PDT ([2]; TABLE 6): <1-log reduction | viable MRSA cells after photodynamic therapy ([2]; from 100,000,000 viable MRSA cells, 2 minutes of white light irradiation): 0 | MIC [3]: > 100 µM | % Kill [4, 7]: 99.99% | Surviving MRSA [4, 7]: 1.00 × 10^−5 | % Kill [4, 8]: 99.99% | Surviving MRSA [4, 8]: 1.00 × 10^−4 | % Kill [4, 9]: 99.99% | Surviving MRSA [4, 9]: 1.00 × 10^−8 | % Kill [4, 10]: 99.99% | Surviving MRSA [4, 10]: 1.00 × 10^−9 | % Kill [4, 11]: 99.99% | Surviving MRSA [4, 11]: 1.00 × 10^−9 | % Kill [4, 12]: 99.99% | Surviving MRSA [4, 12]: 1.00 × 10^−7 | % Kill [4, 13]: 99.99% | Surviving MRSA [4, 13]: 1.00 × 10^−9 | % Kill ([4]; (1/40) MIC compound + Light): 99.99% | Surviving MRSA ([4]; (1/40) MIC compound + Light): 1.00 × 10^−8 | Synergy with Norfloxacin [4]: 5-log reduction | Synergy with Oxacillin [4]: 5-log reduction | log reduction in the number of surviving cells (CFU/mL), co-treatment with norfloxacin [4]: ~5 log | log reduction in the number of surviving cells (CFU/mL), co-treatment with oxacillin [4]: ~5 log | Orders of Magnitude with Norfloxacin [4]: 9 | Orders of Magnitude with Oxacillin [4]: >7 | MIC [5]: > 200 µM

Brc1ccc(/N=N/c2c[nH]c3ccccc23)cc1 [Compound 8]
IC50 [1]: 31.6 µM | MIC [3]: > 100 µM | % Kill [4, 14]: 99% | Surviving MRSA [4, 14]: 1.00 × 10^−2 | % Kill [4, 15]: 99.9% | Surviving MRSA [4, 15]: 1.00 × 10^−3 | MICs greater than cells treated with compound alone, with norfloxacin [4]: two-fold | MICs greater than cells treated with compound alone, with oxacillin [4]: three-fold | Orders of Magnitude with Norfloxacin [4]: >2 | Orders of Magnitude with Oxacillin [4]: >3 | MIC [5]: 2 µM (≈ 0.6 µg/mL) | Log Reduction ([6]; compound 7.5 μM, Norfloxacin ([…])): 4-5

Clc1ccc(Oc2c(-c3ccc(Cl)cc3)[nH]c3ccccc23)cc1 [Compound 10]
IC50 [1]: 36.8 µM | toxicity to HeLa versus normal WI38 cells ([1]; comparison of TABLE 2 values): killed cancerous HeLa cells at concentrations that were not toxic to normal WI38 cells | MIC [3]: > 100 µM | % Kill [4, 16]: 99.99% | Surviving MRSA [4, 16]: 1.00 × 10^−8 | % Kill [4, 17]: 99.99% | Surviving MRSA [4, 17]: 1.00 × 10^−8 | MICs greater than cells treated with compound alone, with norfloxacin [4]: eight-fold | MICs greater than cells treated with compound alone, with oxacillin [4]: eight-fold | Synergy with Norfloxacin [4]: 5-log reduction | Synergy with Oxacillin [4]: 4-log reduction | log reduction in the number of surviving cells (CFU/mL), co-treatment with norfloxacin [4]: ~5 log | log reduction in the number of surviving cells (CFU/mL), co-treatment with oxacillin [4]: ~4 log | Orders of Magnitude with Norfloxacin [4]: 8 | Orders of Magnitude with Oxacillin [4]: 8 | MIC [5]: 10 to 20 µM (≈ 3.54 to 7.08 µg/mL) | Log Reduction ([6]; compound 2 μM, Tetracycline (1 μg/mL)): 3-4 | Log Reduction ([6]; compound […], Vancomycin (3.5 μg/mL)): 4
